Where two headings read alike, the source gives them in different places.

The IC50 is the midpoint of a concentration-inhibition curve. The term CC50 denotes the concentration that lowers cell viability or growth by half. Higher therefore signals better tolerance by the cells. By Kd is commonly meant the constant that tells how readily two partners part at equilibrium. A low value points to tighter binding.

Series [1] relates to HIV-1 isolates from subtypes A, B, and C. The series is described as follows: Replication in PBMCs, summary over the three isolates tested. It counts as cell-based. The following applies: read-out: Median IC50.
A short description of series [2]: Toxicity to PBMCs, MTS assay. The note with it: human, primary peripheral blood mononuclear cells (PBMCs). For orientation: Tetrazolium dyes change colour on reduction, which living cells bring about.
Another series has as its system PBMCs. The series is described as follows: Toxicity to PBMCs, MTS assay. The note with it: for Therapeutic Index (CC50/IC50): calculated using the median IC50 across all three isolates.
Series [3] relates to VSV-G pseudotyped HIV-1 in TZM-bl cells. It counts as cell-based.
For series [4], the system named is HIV-1 pseudovirus CA K70A. Put plainly: organism not typed. It counts as cell-based. The note with it: for IC50: read-out: IC50, CA K70A virus.
Series [5] relates to HIV-1 pseudovirus CA wild-type. Put plainly: organism not typed. The note with it: for IC50: read-out: IC50, Wild-type virus. The format is cell-based.
The next series deals with HIV-1 93MW965. Put plainly: Replication of primary isolate in PBMCs. The following applies: read-out: IC50 HIV-1 93MW965 Clade C; primary human PBMCs. It counts as cell-based.
Series [6] has as its system HIV-1 pseudovirus CA N57A. Put plainly: organism not typed. It counts as cell-based. The following applies: for IC50: read-out: IC50, CA N57A virus.
For a further series, the system named is HIV-1 92RW025. The series is described as follows: Replication of primary isolate in PBMCs. It counts as cell-based. The following applies: read-out: IC50 HIV-1 92RW025 Clade A; primary human PBMCs.
The next series has as its system HIV-1 JR-CSF. Put plainly: Replication of primary isolate in PBMCs. It counts as cell-based. The following applies: read-out: IC50 HIV-1 JR-CSF Clade B; primary human PBMCs.
The test system of series [7] is HIV-1 pseudovirus CA Q63A. Put plainly: organism not typed. It counts as cell-based. The note with it: for IC50: read-out: IC50, CA Q63A virus.
In another series the target is purified recombinant RT (Human immunodeficiency virus type 1 group M subtype B, UniProt P04585). Put plainly: Colorimetric reverse transcriptase assay kit. The following applies: CX06 15 μM, PF-74 1.5 μM, TMC278 1 nM, relative to DMSO.
The subject of series [8] is HIV-1 pseudovirus CA N74D. Put plainly: organism not typed. It counts as cell-based. The following applies: for IC50: read-out: IC50, CA N74D virus.
The subject of series [9] is HIV-1JR-FL envelope pseudotyped virus. The series is described as follows: Single-round infection assay, early-stage events. The following applies: compound present at infection of target cells, luciferase.
In series [10] the test system is HIV-1 pseudovirus CA P90A. Put plainly: organism not typed. It counts as cell-based. The following applies: for IC50: read-out: IC50, CA P90A virus.
For series [11], the system named is HIV-1JR-FLEnv infected U87.CD4.CCR5 cells. Put plainly: Q-PCR analysis of viral DNA. It counts as cell-based. The following applies: CX06 15 μM.
The target in a further series is HIV-1 CA (Human immunodeficiency virus type 1 group M subtype B, UniProt P12493). The note with it: capsid 30 μM, compound 50 μM, compared to DMSO.
In series [12] the test system is VSV-pseudotyped HIV-1 virus. The format is cell-based.
The test system of a further series is U87.CD4. cells. The format is cell-based, human.
In another series the test system is 293T cells. It counts as cell-based, human.
For series [13], the system named is AMLV Envpseudotyped HIV-1. It counts as cell-based. The note with it: single round infection assay.
For series [14], the system named is HIV-1JR-FL Envpseudotyped viruses. Put plainly: Viral production by p24 quantitation. The format is cell-based. The following applies: 20 μM, relative to DMSO.
The target in series [15] is HIV-1 NL4-3 disulfide stabilized CA hexamer (HIV-1 NL4-3). The series is described as follows: SPR. On the technique in general: In SPR one partner is held on a chip, and binding of the other changes the refractive index at the surface.
The mark [16] stands for this setting: Human immunodeficiency virus 1, PBMC.

With `CN(C(=O)C(Cc1ccccc1)NC(=O)Cc1cnn(C)c1C(F)(F)F)c1ccccc1` (stereo not shown) [CX05, N-methyl-2-(2-(1-methyl-5-(trifluoromethyl)-1H-pyrazol-4-yl)acetamido)-N,3-diphenylpropanamide], the IC50 in [1] (setting [16]) was 18 ± 4.6 µM. For the same molecule, the CC50 in [2] is > 100 µM. Further, the “Therapeutic Index (CC50/IC50)” value with PBMCs is listed as >5.58.

As to `CN(C(=O)C(Cc1ccccc1)NC(=O)Cc1cnn(C(F)F)c1)c1ccccc1` (stereo not shown) [CX04, 2-(2-(1-(difluoromethyl)-1H-pyrazol-4-yl)acetamido)-N-methyl-N,3-diphenylpropanamide], the IC50 in [1] (setting [16]) amounted to 17.1 ± 2.7 µM. Besides, the CC50 in series [2] was > 100 µM. Further, the “Therapeutic Index (CC50/IC50)” value with PBMCs was >5.84.

In the case of `Cc1ccnc2c1NC(=O)c1cccnc1N2C1CC1` [Nevirapine], the “Nuclear import of INsfGFP complexes” value in [3] was “without effect”.

`CC(C)c1nc2c(n1CC(=O)NC(Cc1ccccc1)C(=O)N(C)c1ccccc1)CCCC2` (stereo not shown) [CX03, 2-(2-(2-isopropyl-4,5,6,7-tetrahydro-1H-benzo[d]imidazol-1-yl)acetamido)-N-methyl-N,3-diphenylpropanamide]: in [1] (setting [16]), the IC50 was 5.9 ± 0.9 µM. Besides, the cytotoxic concentration (CC50) in [2] is > 100 µM. The “Therapeutic Index (CC50/IC50)” value in the series on PBMCs is listed as >16.9.

In the case of `Cc1[nH]c2ccccc2c1CC(=O)N[C@@H](Cc1ccccc1)C(=O)N(C)c1ccccc1` [PF-74, reference compound], the IC50 was 0.25 ± 0.08 µM in [4] (single-round infection); 0.22 ± 0.05 µM in series [5] (single-round infection); 0.6 ± 0.1 µM in the series with HIV-1 93MW965; 0.25 ± 0.04 µM in series [6] (single-round infection); 1.5 ± 0.9 µM with HIV-1 92RW025; 0.6 ± 0.2 µM with HIV-1 JR-CSF. Moreover, the IC50 in series [7] (single-round infection) came out at 0.4 ± 0.05 µM; in [1] (over the three isolates tested, PBMCs) it was 0.9 ± 0.5 µM; in series [8] (single-round infection), 0.5 ± 0.1 µM; in series [10] (single-round infection), 0.21 ± 0.04 µM. Also, the “Effect on RT activity in vitro” value at purified recombinant RT is listed as “no effect on RT activity”. Also, in series [3], the “Nuclear import of INsfGFP complexes” value is “efficiently inhibited the appearance of INsfGFP spots in the nucleus”. The “Effect on early-stage events, infectivity of target cells” value in series [9] is given as “dual-stage inhibition profile”. The CC50 with PBMCs (MTS assay, PBMCs) stood at 90.5 ± 5.9 µM.

For `CCn1ncc(CC(=O)NC(Cc2ccccc2)C(=O)N(C)c2ccccc2)c1C(F)F` (stereo not shown) [CX06, 2-(2-(5-(difluoromethyl)-1-ethyl-1H-pyrazol-4-yl)acetamido)-N-methyl-N,3-diphenylpropanamide], the “Fold increase, CA K70A virus” value in series [4] (IC50 relative to wild-type) worked out at 1.03. The concentration for half-maximal inhibition (IC50) in series [4] turned out to be 3.2 ± 0.3 µM; in [5] it was 3.1 ± 0.5 µM; in series [6], 4.3 ± 0.5 µM; in [7], 21.4 ± 1.4 µM; in series [1] (setting [16]) it was 5.9 ± 1 µM; in [8], 2.4 ± 0.7 µM. The IC50 in series [10] was 3.1 ± 0.5 µM. For the same molecule, the 2-LTR circles entry in [11] (24 h) was “significantly affected”. Also, the “Early RT products (RU5)” value in series [11] (48 h) was “slightly diminished”. In series [11] (48 h), the “Integrated pro-virus (Alu-PCR)” value is recorded as “significantly affected”. The “Late RT products (U5Ψ)” value in series [11] (48 h) is “significantly affected”. In addition, in series [5] (IC50 relative to wild-type), the “Fold increase, Wild-type virus” value turned out to be 1. Also, the “Fold increase, CA N57A virus” value in [6] (IC50 relative to wild-type) came to 1.4. Further, the “Effect on capsid assembly, turbidity at 350 nm” value at HIV-1 CA is given as “reduced the multimerization of HIV-1 CA”. The “Fold increase, CA Q63A virus” value in [7] (IC50 relative to wild-type) worked out at 6.9. In addition, on purified recombinant RT, the “Effect on RT activity in vitro” value is reported as “no effect on RT activity”. In series [3], the “Nuclear import of INsfGFP complexes” value is “efficiently inhibited the appearance of INsfGFP spots in the nucleus”. Besides, the “Time of addition at which compound is effective” value in series [12] is ≤ 6 hours post-infection. Also, the “Fold increase, CA N74D virus” value in series [8] (IC50 relative to wild-type) stood at 0.8. Moreover, the Cytotoxicity entry with U87.CD4. cells and with 293T cells was “not cytotoxic” throughout. The “Inhibition of AMLV Env pseudotyped HIV-1 infection” value in [13] is on record as “almost identical potency as when the HIV-1JR-FLEnv was used”. For the same molecule, the CC50 in series [2] was > 100 µM. Moreover, in the series on PBMCs, the “Therapeutic Index (CC50/IC50)” value was >17.0. For the same molecule, the “Viral production, p24 content” value in series [14] is reported as “decreasing the amount of virus released from the cells”. Also, in [10] (IC50 relative to wild-type), the “Fold increase, CA P90A virus” value is listed as 1.

On to “NUP153 1407-1423 peptide (from UniProt P49790 1407-1423)”, for which the Kd in series [15] was 202 µM.

Values taken from paper PMC6214487 (Journal of drug design and research, 2018).
